# Test results published in patent publication EP0332156B1, “Cephem compounds and processes for preparation thereof” (FUJISAWA PHARMACEUTICAL CO., LTD., priority 1988, dated 1989).
# Test system: E. coli 31
# Experiment: In vitro antibacterial activity (MIC), two-fold agar-plate dilution method
# Assay type: cell-based
# Settings: Escherichia coli; test strain E. coli 31; heart infusion agar; incubation at 37°C for 20 hours; inoculum 10^8 viable cells per ml
# Procedure: In vitro antibacterial activity was determined by the two-fold agar-plate dilution method as described below. One loopful of an overnight culture of each test strain in Trypticase-soy broth (10^8 viable cells per ml) was streaked on heart infusion agar (HI-agar) containing graded concentrations of representative test compound, and the minimal inhibitory concentration (MIC) was expressed in terms of µg/mℓ after incubation at 37°C for 20 hours.
structure (smiles),measurement,value
CON=C(C(=O)NC1C(=O)N2C(C(=O)[O-])=C(C[n+]3ccc4n3CCN4)CSC12)c1csc(N)n1 (stereo not shown) [(1)],MIC,≤ 0.025 µg/mL
